Patent US12037344B2, “NLRP3 modulators” (INNATE TUMOR IMMUNITY, INC., priority 2018, dated 2024)
Where two headings read alike, the source gives them in different places.

Experiments:
THP-1 cells = test: Measurement of IL-1β production, hTRF protocol (second alternative procedure), THP-1 cells; type: cell-based, human
Outline: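 Compounds, dilution series starting at a final 10 μM, were incubated 2 hours at 37° C with PMA-differentiated THP-1 cells (50 ng/ml overnight; 50,000 cells/well, 2% FBS RPMI). Released IL-1β quantified in supernatant by hTRF kit with 1:40 antibody dilution, 4° C overnight, 665/615 nm ratio.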

TLR7 = target: T1, TLR7 (Homo sapiens, UniProt Q9NYK1); test: In vitro human TLR7 binding reporter assay (HEK-Blue, NF-kB/AP1-inducible SEAP); type: cell-based; settings: read-out: TLR7 Agonist EC50
T1 construct: human HEK-Blue cells co-expressing a TLR7 or TLR8 gene
T1 sequence (Q9NYK1 27-1049): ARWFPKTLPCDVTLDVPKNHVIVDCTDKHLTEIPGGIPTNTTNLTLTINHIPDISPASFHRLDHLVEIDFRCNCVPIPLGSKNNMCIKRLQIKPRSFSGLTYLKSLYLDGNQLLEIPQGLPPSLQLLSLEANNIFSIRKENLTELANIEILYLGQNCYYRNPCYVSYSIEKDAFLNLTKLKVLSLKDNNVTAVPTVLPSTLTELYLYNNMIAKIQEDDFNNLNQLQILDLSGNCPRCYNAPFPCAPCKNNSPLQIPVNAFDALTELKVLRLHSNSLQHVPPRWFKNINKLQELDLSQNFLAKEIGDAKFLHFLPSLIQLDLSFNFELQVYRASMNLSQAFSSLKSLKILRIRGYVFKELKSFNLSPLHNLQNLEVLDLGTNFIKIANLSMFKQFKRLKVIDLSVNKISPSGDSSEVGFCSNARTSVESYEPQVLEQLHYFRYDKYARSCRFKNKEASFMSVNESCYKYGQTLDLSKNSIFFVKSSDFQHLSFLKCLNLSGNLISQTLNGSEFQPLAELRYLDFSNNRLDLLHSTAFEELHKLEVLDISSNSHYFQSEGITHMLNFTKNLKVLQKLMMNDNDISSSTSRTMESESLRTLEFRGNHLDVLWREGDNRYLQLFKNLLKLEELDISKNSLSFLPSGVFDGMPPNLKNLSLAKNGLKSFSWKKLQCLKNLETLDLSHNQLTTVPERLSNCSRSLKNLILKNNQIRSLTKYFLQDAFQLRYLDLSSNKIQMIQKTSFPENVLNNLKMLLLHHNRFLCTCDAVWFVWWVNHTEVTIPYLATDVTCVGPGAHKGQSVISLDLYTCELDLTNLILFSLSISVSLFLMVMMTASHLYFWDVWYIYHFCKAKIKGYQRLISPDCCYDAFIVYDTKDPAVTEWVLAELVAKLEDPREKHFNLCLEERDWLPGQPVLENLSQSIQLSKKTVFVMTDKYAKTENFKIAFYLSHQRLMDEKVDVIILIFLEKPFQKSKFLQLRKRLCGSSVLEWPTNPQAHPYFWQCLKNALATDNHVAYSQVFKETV
Outline: (§1)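 HEK-Blue cells expressing human TLR7 or TLR8 with NF-kB/AP1-inducible SEAP reporter, plated 24 h, then compound-treated 18 h at 37° C, 5% CO2. EC50 normalized to 100% Ymax set by 50 μM reference standard.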

TLR8 = target: T2, TLR8 (Homo sapiens, UniProt Q9NR97); test: In vitro human TLR8 binding reporter assay (HEK-Blue, NF-kB/AP1-inducible SEAP); type: cell-based; settings: read-out: TLR8 Agonist EC50
T2 construct: human HEK-Blue cells co-expressing a TLR7 or TLR8 gene
T2 sequence (Q9NR97 27-1041): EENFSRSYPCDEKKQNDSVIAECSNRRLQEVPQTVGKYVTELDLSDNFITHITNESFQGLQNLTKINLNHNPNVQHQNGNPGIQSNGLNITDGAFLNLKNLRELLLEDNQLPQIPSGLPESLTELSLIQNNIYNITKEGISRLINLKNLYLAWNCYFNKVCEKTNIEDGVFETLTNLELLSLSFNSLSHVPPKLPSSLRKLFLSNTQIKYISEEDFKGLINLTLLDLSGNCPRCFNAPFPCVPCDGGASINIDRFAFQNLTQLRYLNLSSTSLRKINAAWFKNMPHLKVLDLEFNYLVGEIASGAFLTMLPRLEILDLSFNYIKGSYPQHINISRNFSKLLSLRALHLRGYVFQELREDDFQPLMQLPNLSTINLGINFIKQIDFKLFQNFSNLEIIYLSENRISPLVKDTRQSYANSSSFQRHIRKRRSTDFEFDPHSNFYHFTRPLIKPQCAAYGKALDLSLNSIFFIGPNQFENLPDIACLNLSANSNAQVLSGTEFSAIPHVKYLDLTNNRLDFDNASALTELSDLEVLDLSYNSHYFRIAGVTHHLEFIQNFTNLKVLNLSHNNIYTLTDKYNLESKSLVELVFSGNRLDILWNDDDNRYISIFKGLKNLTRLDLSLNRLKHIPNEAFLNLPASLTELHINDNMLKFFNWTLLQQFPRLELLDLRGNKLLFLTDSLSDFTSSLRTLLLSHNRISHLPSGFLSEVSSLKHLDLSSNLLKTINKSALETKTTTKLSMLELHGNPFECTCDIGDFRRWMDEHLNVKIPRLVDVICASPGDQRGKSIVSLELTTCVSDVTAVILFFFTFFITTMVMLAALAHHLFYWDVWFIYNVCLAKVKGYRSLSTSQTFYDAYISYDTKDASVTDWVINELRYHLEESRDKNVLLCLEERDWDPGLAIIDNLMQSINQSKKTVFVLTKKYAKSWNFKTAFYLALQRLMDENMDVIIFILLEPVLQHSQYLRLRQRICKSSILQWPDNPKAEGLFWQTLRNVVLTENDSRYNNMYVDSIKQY
Outline: as §1

[1] = Homo sapiens, THP-1, IL-1β production, human, read-out: NLRP3 hILIB EC50
[2] = Homo sapiens, THP-1, IL-1β production, human cells, read-out: NLRP3 hILIB EC50

| Structure (SMILES) | EC50 (THP-1 cells; [1]) [µM] | EC50 (TLR7; activity range class) [µM] | EC50 (TLR8; activity range class) [µM] | EC50 (THP-1 cells; Homo sapiens, THP-1, read-out: NLRP3 hILIB EC50) [µM] | EC50 (THP-1 cells; [2]) [µM] | EC50 (TLR7; activity range) [µM] | EC50 (TLR8; activity range) [µM] | EC50 (THP-1 cells; IL-1β production, human, read-out: NLRP3 hILIB EC50) [µM] |
| --- | --- | --- | --- | --- | --- | --- | --- | --- |
| Nc1nc2cc(-c3cc[nH]n3)ccc2c2cn(CCNC(=O)c3ccc(C(F)(F)F)cn3)nc12 [Example 62] | 0.28 | 20 to 100 | > 100 | – | – | – | – | – |
| CN(C)CCn1cc2c(N)nc3cc(-c4ccn[nH]4)ccc3c2n1 [Example 261] | 1.29 | > 100 | > 100 | – | – | – | – | – |
| CC(=O)NCCn1cc2c(n1)c(N)nc1cc(-c3cc[nH]n3)ccc12 [Example 33] | 11.8 | > 100 | > 100 | – | – | – | – | – |
| CCCCn1cc2c(N)nc3cc(-c4cc[nH]n4)ccc3c2n1 [Example 305] | 0.29 | > 100 | > 100 | – | – | – | – | – |
| Nc1nc2cc(-c3cc[nH]n3)ccc2c2cn(CCCn3ccccc3=O)nc12 [Example 4, 1-{3-[4-amino-7-(1H-pyrazol-3-yl)-2H-pyrazolo[3,4-c]quinolin-2-yl]propyl}-1,2-dihydropyridin-2-one] | 16.8 | > 100 | > 100 | – | – | – | – | – |
| Nc1nc2cc(-n3cccn3)ccc2c2cn(CCNC(=O)c3ccccc3)nc12 [Example 132, N-{2-[4-amino-7-(1H-pyrazol-1-yl)-2H-pyrazolo[3,4-c]quinolin-2-yl]ethyl}benzamide] | – | > 100 | 20 to 100 | 0.34 | – | – | – | – |
| CC(C)(C(=O)N1CCCC1)n1cc2c(N)nc3cc(-c4cc[nH]n4)ccc3c2n1 [Example 509] | – | – | – | – | 6.95 | > 100 | > 100 | – |
| Nc1nc2cc(-c3cc[nH]n3)ccc2c2nn(C3CCCOC3)cc12 (stereo not drawn) [Example 312] | 0.22 | > 100 | > 100 | – | – | – | – | – |
| CO[C@H]1CCN(Cc2cc3c(N)nc4cc(-c5cc[nH]n5)ccc4c3[nH]2)C1 [Example 472] | – | – | – | – | 0.23 | > 100 | > 100 | – |
| Nc1nc2cc(-n3cccn3)ccc2c2cn(C[C@H]3CCC(=O)N3)nc12 [Example 16] | 11.3 | 20 to 100 | > 100 | – | – | – | – | – |
| Nc1nc2cc(-c3cc[nH]n3)ccc2c2nn(C3CCOC3)cc12 (single isomer, unassigned) [Example 239] | – | > 100 | > 100 | – | – | – | – | 0.21 |
| CCN(Cc1nc2c(N)nc3cc(-c4ccn[nH]4)ccc3c2s1)C(C)=O [Example 140, N-{[4-amino-7-(1H-pyrazol-3-yl)-[1,3]thiazolo[4,5-c]quinolin-2-yl]methyl}-N-ethylacetamide] | 1.65 | > 100 | > 100 | – | – | – | – | – |
| Nc1nc2cc(-c3ccn[nH]3)ccc2c2nn(CCNS(=O)(=O)C3CC3)cc12 [Example 590] | – | – | – | – | 1.2 | > 100 | > 100 | – |
| Nc1nc2cc(-c3cc[nH]n3)ccc2c2cn(CCNC(=O)C3CCOCC3)nc12 [Example 47] | 23.3 | > 100 | > 100 | – | – | – | – | – |
| Nc1nc2cc(-c3cc[nH]n3)ccc2c2cn(CCNC(=O)c3ncc(Cl)cc3F)nc12 [Example 85] | 0.4 | 20 to 100 | 20 to 100 | – | – | – | – | – |
| CNC(=O)Cn1cc2c(N)nc3cc(-c4cc[nH]n4)ccc3c2n1 [Example 461] | – | – | – | – | 0.25 | > 100 | > 100 | – |
| Nc1nc2cc(-c3cc[nH]n3)ccc2c2cn(CCNC(=O)c3ccc(F)cc3)nc12 [Example 42] | 0.67 | > 100 | > 100 | – | – | – | – | – |
| Nc1nc2cc(-c3cc[nH]n3)ccc2c2nn(CCNC(=O)c3cnccn3)cc12 [Example 201] | 0.48 | > 100 | > 100 | – | – | – | – | – |
| Nc1nc2cc(-c3cc[nH]n3)ccc2c2nn(CCNC(=O)c3ccccc3)cc12 [Example 200] | 0.57 | > 100 | > 100 | – | – | – | – | – |
| CN(C)C(=O)C(C)(C)Cn1cc2c(N)nc3cc(-c4ccn[nH]4)ccc3c2n1 [Example 592] | – | – | – | – | 0.68 | > 100 | > 100 | – |
| Nc1nc2cc(-c3cc[nH]n3)ccc2c2cn(CCNC(=O)c3cnc4ccccn4c3=O)nc12 [Example 98] | 1.59 | > 100 | > 100 | – | – | – | – | – |
| C[C@@H](O)Cn1cc2c(N)nc3cc(-c4cc[nH]n4)ccc3c2n1 [Example 370] | 0.38 | > 100 | > 100 | – | – | – | – | – |
| Nc1nc2cc(-c3cc[nH]n3)ccc2c2cn(CCNC(=O)c3cccnn3)nc12 [Example 73] | 2.96 | > 100 | > 100 | – | – | – | – | – |
| Nc1nc2cc(-n3cccn3)ccc2c2cn(CC3CCCO3)nc12 (stereo not drawn) [Example 17] | 2.2 | 20 to 100 | > 100 | – | – | – | – | – |
| CC(C)(Cn1cc2c(N)nc3cc(-c4ccn[nH]4)ccc3c2n1)C(=O)NCCS(C)(=O)=O [Example 609] | – | – | – | – | 18.1 | > 100 | > 100 | – |
| CC(C)(O)Cn1ncc2c(N)nc3cc(-c4cc[nH]n4)ccc3c21 [Example 432] | – | – | – | – | 3.19 | > 100 | > 100 | – |
| CC(CC(=O)NCC(F)F)n1cc2c(N)nc3cc(-c4cc[nH]n4)ccc3c2n1 (stereo not drawn) [Example 618] | – | – | – | – | 14.5 | > 100 | > 100 | – |
